The source of these data is patent US20260216119A1, “NOVEL SOLUTIONS” (priority 2022, published 2026).

One may read the Cmax as the maximum level reached in the sampled fluid or tissue.

For data set [1] the following is noted: ambient conditions. On the procedure: A solution that remains intact to an extent acceptable for pharmaceutical use for the time required between preparing the solution and administering it to the patient (for example 2 hours, for example 1 hour) is considered herein to be “stable”.
The procedure of data set [2]: 0.79 g Cremophor EL (Trade Mark) was weighed in an Erlenmeyer flask, and 60 mL aCSF (obtained from Tocris Pharma) was added. […] The solution was then placed in an ultrasonic bath maintained at 25-28° C. for 20 minutes. […] The solution was ultrasonicated for another 25 minutes.
The mixture was then filtered using a Millipore Millex-LG, PTFE, 0.20 μm filter (SLLG025SS).
500 μL Cremophor EL was pipetted into an Erlenmeyer flask containing 40 mL in-house prepared aCSF. […] An additional 10 minutes of ultrasonication was carried out to ensure complete dissolution.

Data set [3] is described as follows: Calculated concentrations based on ventricle and CSF volumes. The format is in vivo. The note with it: dog; for Cmax: Beagle, icv or intrathecal, ventricle volume 2 ml; for Cmax CSF: CSF volume 20 mL.
In data set [4] the target is MEK2 (Homo sapiens, UniProt P36507). The note with it: cited from earlier work.
MEK2, sequence (P36507 whole entry, species assumed): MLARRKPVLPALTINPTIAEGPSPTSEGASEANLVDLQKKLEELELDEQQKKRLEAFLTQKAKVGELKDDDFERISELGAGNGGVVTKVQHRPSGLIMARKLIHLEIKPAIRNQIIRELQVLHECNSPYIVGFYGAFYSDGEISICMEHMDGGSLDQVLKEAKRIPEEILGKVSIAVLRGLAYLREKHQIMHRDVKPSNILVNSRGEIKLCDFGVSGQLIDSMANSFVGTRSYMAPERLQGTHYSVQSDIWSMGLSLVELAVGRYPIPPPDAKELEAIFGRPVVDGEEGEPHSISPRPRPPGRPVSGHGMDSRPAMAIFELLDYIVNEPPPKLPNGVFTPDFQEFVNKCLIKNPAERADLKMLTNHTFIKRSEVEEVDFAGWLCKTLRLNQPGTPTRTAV
Data set [5] relates to female rats. As to conditions: cited from earlier work.
For data set [6], the system named is rats. As to conditions: in 0.5% Cremophor in aqueous solution; cited from earlier work.

In the case of `N#CC(=C(/N)Sc1ccccc1N)/C(C#N)=C(\N)Sc1ccccc1N` [Example U0126, 1,4-Diamino-2,3-dicyano-1,4-bis(o-aminophenylmercapto) butadiene], the “time solid form remains intact” value in data set [1] was “several decades”. In data set [2] (Example 2, clear solution after 0.20 μm PTFE filtration, 0.5% v/v Cremophor EL in aCSF), the “measured content of U0126” value was 68 µM. Further, in data set [2] (Example 3, 0.5% Cremophor EL in aCSF, pH 8.6, after 0.20 μm PTFE filtration), the “U0126 content of filtered samples” value lay within 85 to 99 µM. For the same compound, the Cmax in data set [3] (20 μM/0.5 mL) was 5 µM; in data set [3] (100 μM/0.5 mL), 25 µM; in data set [3] (200 μM/0.5 mL), 50 µM. Further, the “Cmax CSF” value in data set [3] (20 μM/0.5 mL) is 0.5 µM; in data set [3] (100 μM/0.5 mL), 2.5 µM; in data set [3] (200 μM/0.5 mL) it was 5 µM. Further, the “inhibitor of MEK2” value in data set [4] is “inhibitor”. Further, the “long-term neurologic outcome after stroke” value in data set [5] is reported as “improves long-term neurologic outcome”. Also, the “maximum tolerated intracerebroventricular (ICV) concentration in vivo” value in data set [6] was 10 µM.
